Source: patent US20220178900A1, “BIORELEVANT COMPOSITION” (BIORELEVANT.COM LTD., priority 2019, published 2022)

Key:
Type in all cases: physicochemical
[1] = Dissolution in biorelevant fed state gastric media (FEDGAS), USP 2 Dissolution Apparatus at 75 rpm, HPLC; details: within 60 minutes; fed state gastric media at pH 6, pH 4.5 and pH 3
[2] = Dissolution in fasted state gastric media (control experiment); details: for drug dose dissolved: after 2 hours of dissolution, fasted state gastric media
Description: (§1) Three biorelevant fed state gastric media at pH 6, pH 5 and pH 3 using the composition in Table 5 were produced. The media at these three pHs were characterised by measuring pH, buffer capacity, particle size (Z-average and polydispersity using Nanosizer) and surface tension (Kruss surface tension K6). The media were stable at time zero and physically stable after 24 hours. Similarly, the key physicochemical properties were unchanged after 24 hours. The dissolution of exemestane (4 tablet×25 mg tablets) in the media was carried out using USP 2 Dissolution Apparatus at 75 rpm (n=6 vessels). Samples of the three biorelevant media were taken from the dissolution vessels and filtered through a 0.45 micrometer nylon filter with prefilter at 5 mins, 10 mins, 15 mins, 20 mins, 25 mins, 30 mins, 45 mins, 60 mins, 90 mins and 120 mins and analysed for exemestane content by HPLC. […] Within 30 minutes more than 80% of the drug was dissolved across the three media.
The dissolution of Sturgeron (15 mg cinnarizine immediate release tablets) was tested in a fasted gastric media (control experiment) and compared with fed gastric media at pH 6, pH 5 and pH 3 using the same dissolution set up as described previously. The dissolution profile of this drug product in the fasted gastric media indicates this basic drug cinnarizine dissolves rapidly in the fasted stomach. […]
The dissolution of danazol (100 mg) hard gelatine capsules was carried out in fasted state gastric media (control) and compared with biorelevant fed state gastric media at pH 6, pH 4.5 and pH 3 as described using the set up and method in the Case Study 1. […] Case Study 6—Examining Physicochemical Properties of FEDGAS Dissolution Media Stored for 72 Hrs at Room Temperature with Dissolution of Megesterol Acetate Capsules FEDGAS media at pH 6, pH 4.5 and pH 3 were prepared by adding the appropriate amount of water in a suitable container, adding the corresponding buffer concentrate and adding the appropriate amount of readily water dispersible biorelevant precursor concentrate and mixing with a magnetic stirrer until homogeneous. […]

[3] = Dissolution in biorelevant fed state gastric media (FEDGAS), USP 2 Dissolution Apparatus at 75 rpm, HPLC; details: for dissolution in fed state gastric media compared with fasted state gastric media: fed state gastric media across pH 6 to pH 3; for pH dependence of dissolution profiles in fed state gastric media: fed state media pH 6, pH 5, pH 3
Description: In the case studies from 1 to 4, FEDGAS media at pH 6, pH 5 and pH 3 were prepared by adding the appropriate amount of purified water in a suitable container, adding the corresponding buffer concentrate and adding the appropriate amount of biorelevant precursor concentrate and mixing with a magnetic stirrer until homogeneous.
as §1

[4] = FEDGAS dissolution media stored for 72 hrs at room temperature; details: 160 mg capsules in 900 mL; FEDGAS pH 6, pH 4.5, pH 3; room temperature storage
Description: The dissolution of danazol (100 mg) hard gelatine capsules was carried out in fasted state gastric media (control) and compared with biorelevant fed state gastric media at pH 6, pH 4.5 and pH 3 as described using the set up and method in the Case Study 1. Referring to FIG. 6, the dissolution in fasted gastric media is negligible even after 2 hours of dissolution. Less than 0.2% of the drug dose is dissolved even after 2 hours of dissolution. […] Dissolution reaches about 55% of the dosage form within 60 minutes in fed state gastric media at pH 6, pH4.5 and pH 3 respectively. Case Study 6—Examining Physicochemical Properties of FEDGAS Dissolution Media Stored for 72 Hrs at Room Temperature with Dissolution of Megesterol Acetate Capsules FEDGAS media at pH 6, pH 4.5 and pH 3 were prepared by adding the appropriate amount of water in a suitable container, adding the corresponding buffer concentrate and adding the appropriate amount of readily water dispersible biorelevant precursor concentrate and mixing with a magnetic stirrer until homogeneous. The three media were stored at room temperature for up to 72 hours. […] The pH, buffer capacity, surface tension and particle size (Z-average) of the FEDGAS pH 6 and FEDGAS pH 3 were measured at t=0 and at t=72 hours. […]

drug dose dissolved [2]	dissolution in fed state gastric media compared with fasted state gastric media [3]	pH dependence of dissolution profiles in fed state gastric media [3]	Structure (SMILES)	other results
Less than 0.2%	considerably more rapidly	–	C#C[C@]1(O)CC[C@H]2[C@@H]3CCC4=Cc5oncc5C[C@]4(C)[C@H]3CC[C@@]21C [danazol]	Dissolution, % of the dosage form [1]: about 55%
–	–	not sensitive to different pHs	C=C1C[C@@H]2[C@H](CC[C@]3(C)C(=O)CC[C@@H]23)[C@@]2(C)C=CC(=O)C=C12 [exemestane]	drug dissolved ([3]; within 30 minutes, across the three fed state media pH 6, pH 5 and pH 3, 4 x 25 mg tablets): more than 80%
–	–	–	CC(=O)O[C@]1(C(C)=O)CC[C@H]2[C@@H]3C=C(C)C4=CC(=O)CC[C@]4(C)[C@H]3CC[C@@]21C [megesterol acetate]	dissolution profiles in media stored t=0, 24, 48, 72 hours [4]: identical
Less than 0.1%	considerably more rapidly	–	Cc1cccc(Nc2ccccc2C(=O)O)c1C [mefenamic acid]	Dissolution, % of the dosage form ([3]; within 30 minutes, fed state gastric media pH 3): ~10%; Dissolution, % of the dosage form ([3]; within 30 minutes, fed state gastric media pH 5): ~25%; Dissolution, % of the dosage form ([3]; within 30 minutes, fed state gastric media pH 6): about 45%

Structure (SMILES)	drug dose dissolved [2]	dissolution in fed state gastric media compared with fasted state gastric media [3]	pH dependence of dissolution profiles in fed state gastric media [3]	other results
C(=C\c1ccccc1)/CN1CCN(C(c2ccccc2)c2ccccc2)CC1 [cinnarizine]	–	slower drug dissolution in all fed state gastric media	faster at lower pH	drug dissolved ([2]; within 30 minutes, fasted gastric media): ~90%
